Experimental findings from patent publication US5644059A, “1,4-dihydropyridine derivatives and methods of producing the same” (Fujirebio Inc., priority 1990, dated 1997) are described below.

This test concerns platelet aggregation. Briefly: Test for platelet aggregation-inhibiting activity of rabbit (PAF-induced aggregation in platelet rich plasma). Further details: dose or concentration left out as unconfirmed. To be noted: rabbit PRP, 37°C, 10 minutes incubation, aggregation by PAF (10 μl); test compound concentration not given. It is filed as cell-based. As for the experimental part:
2. Test for platelet aggregation-inhibiting activity of rabit
A blood of a rabbit (Japanese white; male; 2.5-3.0 kg) was exsanguinated from a carotid of the rabbit, and nine parts of the blood were mixed with one part of a 3.8% aqueous solution of sodium citrate. The mixture was centrifuged at 1100 rpm at 20°C. for 15 minutes. The upper layer is a platelet rich plasma (PRP), and the lower layer was centrifuged at 2500 rpm at 20° C. for 10 minutes, so that a platelet poor plasma (PPP) was obtained.
10 μl of a solution of the compound to be tested was added to 200 μl of PRP, and the mixture was subjected to incubation at 37°C. for 10 minutes. To the mixture was added 10 μl of a platelet activating factor (PAF)(10 mg/ml). The agglutination was measured by Agricometer (NKK, PAT-4A).
For `COC(=O)C1=C(C)NC(C)=C(C(=O)NCC(=O)OC(C)(C)C)C1c1cccc(C#N)c1` (stereo not drawn) [Example 34, t-butyl 2-[N-[1,4-dihydro-2,6-dimethyl-5-methoxycarbonyl-4-(3-cyanophenyl)pyridine-3-carbonyl]-amino]acetate], the “Platelet Aggregation-Inhibiting Activity” value is 100%.

Consider `COC(=O)C1=C(C)NC(C)=C(C(=O)N[C@H](C(=O)OC(C)(C)C)C(C)C)C1c1ccccc1` (single isomer, unassigned) [24 (Compound a)], for which the “Platelet Aggregation-Inhibiting Activity” value is 24.3%.

Consider `CCOC(=O)CNC(=O)C1=C(C)NC(C)=C(C(=O)OC)C1c1cccc([N+](=O)[O-])c1` (stereo not drawn) [Example 62, ethyl 2-[N-[1,4-dihydro-2,6-dimethyl-5-methoxycarbonyl-4-(3-nitropheny1)pyridine-3-carbonyl]amino]-acetate], for which the “Platelet Aggregation-Inhibiting Activity” value came to 64.3%.

For `CCOC(=O)c1nccnc1NC(=O)C1=C(C)NC(C)=C(C(=O)OC)C1c1cccc([N+](=O)[O-])c1` (stereo not drawn) [Example 70, ethyl 3-[N-[1,4-dihydro-2,6-dimethyl-5-methoxycarbonyl-4-(3-nitrophenyl)pyridine-3-carbonyl]amino]pyrazine-2-carboxylate], the “Platelet Aggregation-Inhibiting Activity” value was found to be 27.1%.

`COC(=O)C1=C(C)NC(C)=C(C(=O)N[C@@H](C(=O)OC(C)(C)C)C(C)C)C1c1cccc([N+](=O)[O-])c1` (single isomer, unassigned) [2 (Compound a)]: the “Platelet Aggregation-Inhibiting Activity” value stood at 25.5%.

In the case of `COC(=O)C1=C(C)NC(C)=C(C(=O)NCC(=O)OC(C)(C)C)C1c1ccccc1C` (stereo not drawn) [Example 47, t-butyl 2-[N-[1,4-dihydro-2,6-dimethyl-5-methoxycarbonyl-4-(2-methylphenyl)pyridine-3-carbonyl]-amino]acetate], the “Platelet Aggregation-Inhibiting Activity” value was found to be 32.7%.

Regarding `CC1=C(C(=O)NCC(=O)OC(C)(C)C)C(c2cccc([N+](=O)[O-])c2)C(C(=O)N[C@H](C(=O)OC(C)(C)C)C(C)C)=C(C)N1` (single isomer, unassigned) [52 (Compound a)], the “Platelet Aggregation-Inhibiting Activity” value stood at 29.2%.

For `COC(=O)C1=C(C)NC(C)=C(C(=O)N[C@H](C(=O)OC(C)(C)C)C(C)C)C1c1cccc(OC)c1` (stereo partly drawn) [Example 23, t-butyl 2-(S)-[N-[1,4-dihydro-2,6-dimethyl-5-methoxycarbonyl-4-(3-methoxyphenyl)pyridine-3-carbonyl]-amino]-3-methylbutylate], the “Platelet Aggregation-Inhibiting Activity” value is 33.6%.

As for `COC(=O)C1=C(C)NC(C)=C(C(=O)NCC(=O)OC(C)(C)C)C1c1ccccc1C#N` (stereo not drawn) [Example 33, t-butyl 2-[N-[1,4-dihydro-2,6-dimethyl-5-methoxycarbonyl-4-(2-cyanophenyl)pyridine-3-carbonyl]-amino]acetate], the “Platelet Aggregation-Inhibiting Activity” value is reported as 94.2%.
